{"source": "ChEMBL document CHEMBL5550165", "about": "“Novel quinoxaline analogs as telomeric G-quadruplex ligands exert antitumor effects related to enhanced immunomodulation” (Eur J Med Chem, 2024)", "key": {"Quadruplex DNA [1]": {"tested_on": "Quadruplex DNA", "test": "Stabilization of G-quadruplex telomeric DNA in human MDA-MB-231 cells assessed as R-loop formation in mitochondria by measuring increase in S9.6 intensity at 3 uM incubated for 24 hrs by DAPI staining based immunofluorescence microscopic analysis"}, "Quadruplex DNA [2]": {"tested_on": "Quadruplex DNA", "test": "Binding affinity to G-quadruplex telomeric DNA (unknown origin) assessed as melting temperature by CD spectrophotometric analysis", "format": "nucleic-acid assay"}, "MDA-MB-231 [3]": {"tested_on": "MDA-MB-231", "test": "Induction of cell cycle arrest in human MDA-MB-231 cells assessed as accumulation of cells at S phase at 4 uM incubated for 24 hrs by RNase/PI staining based flow cytometry (reference value: 6.3 %)", "format": "functional"}, "4T1 [4]": {"tested_on": "4T1", "test": "Antitumor immunity against mouse 4T1 cells implanted in BALB/c mouse assessed as increase in serum IL-6 level at 10 mg/kg,ip every other day for 14 days by ELISA", "format": "functional, organism-based", "details": "time 14.0 day"}, "MDA-MB-231 [5]": {"tested_on": "MDA-MB-231", "test": "Induction of cell cycle arrest in human MDA-MB-231 cells assessed as accumulation of cells at S phase at 1 uM incubated for 24 hrs by RNase/PI staining based flow cytometry (reference value: 6.3 %)", "format": "functional"}, "MDA-MB-231 [6]": {"tested_on": "MDA-MB-231", "test": "Induction of cell cycle arrest in human MDA-MB-231 cells assessed as accumulation of cells at G0/G1 phase at 4 uM incubated for 24 hrs by RNase/PI staining based flow cytometry (reference value: 82.3 %)", "format": "functional"}, "MDA-MB-231 [7]": {"tested_on": "MDA-MB-231", "test": "Induction of cell cycle arrest in human MDA-MB-231 cells assessed as accumulation of cells at G2/M phase at 2 uM incubated for 24 hrs by RNase/PI staining based flow cytometry (reference value: 11.3 %)", "format": "functional"}, "Quadruplex DNA [8]": {"tested_on": "Quadruplex DNA", "test": "Stabilization of G-quadruplex telomeric DNA in human MDA-MB-231 cells assessed as increase in colocalization of TRF2 and S9.6 formation foci at 3 uM incubated for 24 hrs by DAPI staining based immunofluorescence microscopic analysis", "format": "cell-based"}, "Quadruplex DNA [9]": {"tested_on": "Quadruplex DNA", "test": "Binding affinity to c-MYC G-quadruplex telomeric DNA (unknown origin) assessed as […] in melting temperature by FRET assay", "format": "nucleic-acid assay"}, "[10]": {"test": "Toxicity in BALB/c mouse implanted with mouse 4T1 cells assessed as histopathological change in liver at 10 mg/kg,ip every other day for 14 days by hematoxylin and eosin staining analysis", "format": "organism-based", "details": "in vivo, 336 h, time 14 day"}, "[11]": {"test": "Toxicity in BALB/c mouse implanted with mouse 4T1 cells assessed as histopathological change in heart at 10 mg/kg,ip every other day for 14 days by hematoxylin and eosin staining analysis", "format": "organism-based", "details": "in vivo, 336 h, time 14 day"}, "MDA-MB-231 [12]": {"tested_on": "MDA-MB-231", "test": "Antiproliferative activity against human MDA-MB-231 cells assessed as reduction in tumor spheroid volume at 20 to 40 uM incubated for 7 days by propidium iodide staining based fluorescence analysis", "format": "functional, cell-based", "details": "dose 20-40 µM, time 7.0 day"}, "MDA-MB-231 [13]": {"tested_on": "MDA-MB-231", "test": "Induction of DNA damage in human MDA-MB-231 cells assessed as upregulation of ATM phosphorylation incubated for 24 hrs by Western blot analysis", "format": "functional, cell-based"}, "MDA-MB-231 [14]": {"tested_on": "MDA-MB-231", "test": "Induction of DNA damage in human MDA-MB-231 cells assessed as increase in micronuclei frequency in aberrant cell at 4 uM incubated for 24 hrs by DAPI staining based microscopic analysis", "format": "functional"}, "[15]": {"test": "Cytotoxicity against human MCF-10A cells incubated for 24 hrs by CCK-8 reagent based spectrophotometric analysis", "format": "toxicity, cell-based"}, "MDA-MB-231 [16]": {"tested_on": "MDA-MB-231", "test": "Induction of DNA damage in human MDA-MB-231 cells assessed as upregulation of ATM phosphorylation at 4 uM by Western blot analysis", "format": "functional, cell-based", "details": "TDE = time-dependent effect"}, "Quadruplex DNA [17]": {"tested_on": "Quadruplex DNA", "test": "Stabilization of G-quadruplex telomeric DNA in human MDA-MB-231 cells assessed as increase in BG4-positive cell nuclei at 3 uM incubated for 24 hrs by DAPI staining based immunofluorescence microscopic analysis"}, "MDA-MB-231 [18]": {"tested_on": "MDA-MB-231", "test": "Induction of cell cycle arrest in human MDA-MB-231 cells assessed as accumulation of cells at G0/G1 phase at 1 uM incubated for 24 hrs by RNase/PI staining based flow cytometry (reference value: 82.3 %)", "format": "functional"}, "4T1 [19]": {"tested_on": "4T1", "test": "Antitumor immunity against mouse 4T1 cells implanted in BALB/c mouse assessed as increase in proportion of CD8+ T cells in tumor at 10 mg/kg,ip every other day for 14 days by immunohistochemistry staining based analysis", "format": "functional, organism-based", "details": "time 14.0 day"}, "MDA-MB-231 [20]": {"tested_on": "MDA-MB-231", "test": "Induction of DNA damage in human MDA-MB-231 cells assessed as upregulation of RPA32 expression at 1 to 4 uM incubated for 24 hrs by Western blot analysis", "format": "functional, cell-based", "details": "dose 1-4 µM"}, "U2OS": {"tested_on": "U2OS", "test": "Cytotoxicity against human U2OS cells incubated for 24 hrs by CCK-8 reagent based spectrophotometric analysis", "format": "functional, cell-based"}, "MDA-MB-231 [21]": {"tested_on": "MDA-MB-231", "test": "Induction of apoptosis in human MDA-MB-231 cells assessed as upregulation of cleaved caspase-3 expression at 1 to 4 uM incubated for 24 hrs by Western blot analysis", "format": "functional, cell-based", "details": "dose 1-4 µM"}, "[22]": {"test": "Toxicity in BALB/c mouse implanted with mouse 4T1 cells assessed as histopathological change in spleen at 10 mg/kg,ip every other day for 14 days by hematoxylin and eosin staining analysis", "format": "organism-based", "details": "in vivo, 336 h, time 14 day"}, "MDA-MB-231 [23]": {"tested_on": "MDA-MB-231", "test": "Induction of cell cycle arrest in human MDA-MB-231 cells assessed as accumulation of cells at G0/G1 phase at 2 uM incubated for 24 hrs by RNase/PI staining based flow cytometry (reference value: 82.3 %)", "format": "functional"}, "[24]": {"test": "Drug uptake in human MDA-MB-231 cells assessed as increase in fluorescence intensity in tumor spheroid incubated for 24 hrs", "format": "ADME, cell-based", "details": "mda-mb-231, 24 h"}, "4T1 [25]": {"tested_on": "4T1", "test": "Cytotoxicity against mouse 4T1 cells incubated for 24 hrs by CCK-8 reagent based spectrophotometric analysis", "format": "functional, cell-based", "details": "4T1, 24 h"}, "MDA-MB-231 [26]": {"tested_on": "MDA-MB-231", "test": "Cytotoxicity against human MDA-MB-231 cells incubated for 24 hrs by CCK-8 reagent based spectrophotometric analysis", "format": "functional, cell-based", "details": "MDA-MB-231, 24 h"}, "MDA-MB-231 [27]": {"tested_on": "MDA-MB-231", "test": "Induction of immunogenic cell death in human MDA-MB-231 cells assessed as increase in ATP release at 1 to 4 uM incubated for 24 hrs by ELISA", "format": "functional, cell-based", "details": "dose 1-4 µM"}, "Quadruplex DNA [28]": {"tested_on": "Quadruplex DNA", "test": "Binding affinity to G-quadruplex telomeric DNA (unknown origin) assessed as thermal shift at 10 uM by UV-Visible spectrophotometric analysis", "format": "nucleic-acid assay"}, "4T1 [29]": {"tested_on": "4T1", "test": "Antitumor activity against mouse 4T1 cells implanted in BALB/c mouse assessed as increase in survival time at 10 mg/kg,ip every other day for 14 days", "format": "functional, organism-based", "details": "time 14.0 day"}, "MDA-MB-231 [30]": {"tested_on": "MDA-MB-231", "test": "Induction of DNA damage in human MDA-MB-231 cells assessed as increase in gamma-H2AX level in nucleus at 3 uM incubated for 24 hrs by DAPI staining based immunofluorescence analysis", "format": "functional, cell-based"}, "4T1 [31]": {"tested_on": "4T1", "test": "Antitumor immunity against mouse 4T1 cells implanted in BALB/c mouse assessed as increase in proportion of CD4+ T cells in tumor at 10 mg/kg,ip every other day for 14 days by flow cytometry", "format": "functional, organism-based", "details": "time 14.0 day"}, "4T1 [32]": {"tested_on": "4T1", "test": "Antitumor immunity against mouse 4T1 cells implanted in BALB/c mouse assessed as increase in proportion of CD4+ T cells in tumor at 10 mg/kg,ip every other day for 14 days by immunohistochemistry staining based analysis", "format": "functional, organism-based", "details": "time 14.0 day"}, "MDA-MB-231 [33]": {"tested_on": "MDA-MB-231", "test": "Induction of cell cycle arrest in human MDA-MB-231 cells assessed as accumulation of cells at G2/M phase at 4 uM incubated for 24 hrs by RNase/PI staining based flow cytometry (reference value: 11.3 %)", "format": "functional"}}, "note": "Activity calls are given as the source filed them. The rule behind the calls is not given here."}
{"smiles": "CN(C)CCN(C)c1ccc(-c2nc3ccc(C(F)(F)F)cc3nc2-c2ccc(N(C)CCN(C)C)cc2)cc1", "values": [{"measurement": "Activity", "setting": "Quadruplex DNA [1]", "value": "Active"}, {"measurement": "Tm", "setting": "Quadruplex DNA [2]", "value": 66, "unit": "°C"}, {"measurement": "Activity", "setting": "MDA-MB-231 [3]", "value": 8.6, "unit": "%"}, {"measurement": "Activity", "setting": "4T1 [4]", "value": "Active"}, {"measurement": "Activity", "setting": "MDA-MB-231 [5]", "value": 6.4, "unit": "%"}, {"measurement": "Activity", "setting": "MDA-MB-231 [6]", "value": 70.3, "unit": "%"}, {"measurement": "Activity", "setting": "MDA-MB-231 [7]", "value": 11.5, "unit": "%"}, {"measurement": "Activity", "setting": "Quadruplex DNA [8]", "value": "Active"}, {"measurement": "Activity", "setting": "Quadruplex DNA [9]", "value": "Active"}, {"measurement": "Activity", "setting": "[10]", "value": "Non-Toxic"}, {"measurement": "Activity", "setting": "[11]", "value": "Non-Toxic"}, {"measurement": "Activity", "setting": "MDA-MB-231 [12]", "value": "Active"}, {"measurement": "Activity", "setting": "MDA-MB-231 [13]", "value": "Dose-Dependent Effect"}, {"measurement": "Activity", "setting": "MDA-MB-231 [14]", "value": "Active"}, {"measurement": "IC50 at 24 h", "setting": "[15]", "value": 5.8, "unit": "µM"}, {"measurement": "Activity", "setting": "MDA-MB-231 [16]", "value": "Tde"}, {"measurement": "Activity", "setting": "Quadruplex DNA [17]", "value": "Active"}, {"measurement": "Activity", "setting": "MDA-MB-231 [18]", "value": 82.1, "unit": "%"}, {"measurement": "Activity", "setting": "4T1 [19]", "value": "Active"}, {"measurement": "Activity", "setting": "MDA-MB-231 [20]", "value": "Active"}, {"measurement": "IC50", "setting": "U2OS", "value": 3, "unit": "µM"}, {"measurement": "Activity", "setting": "MDA-MB-231 [21]", "value": "Active"}, {"measurement": "Activity", "setting": "[22]", "value": "Non-Toxic"}, {"measurement": "Activity", "setting": "MDA-MB-231 [23]", "value": 81.6, "unit": "%"}, {"measurement": "Drug uptake", "setting": "[24]", "value": "Active"}, {"measurement": "IC50", "setting": "4T1 [25]", "value": 4.6, "unit": "µM"}, {"measurement": "IC50", "setting": "MDA-MB-231 [26]", "value": 1.7, "unit": "µM"}, {"measurement": "Activity", "setting": "MDA-MB-231 [27]", "value": "Active"}, {"measurement": "Activity", "setting": "Quadruplex DNA [28]", "value": "Active"}, {"measurement": "Activity", "setting": "4T1 [29]", "value": "Active"}, {"measurement": "Activity", "setting": "MDA-MB-231 [30]", "value": "Active"}, {"measurement": "Activity", "setting": "4T1 [31]", "value": "Active"}, {"measurement": "Activity", "setting": "4T1 [32]", "value": "Active"}, {"measurement": "Activity", "setting": "MDA-MB-231 [33]", "value": 20.9, "unit": "%"}]}
